# Source: publication PMC4823954, “From fighting depression to conquering tumors: a novel tricyclic thiazepine compound as a tubulin polymerization inhibitor” (Cell Death & Disease, 2016)
# Like-named read-outs stand apart in the source and are kept apart here.
# How the values were obtained:
# [1] = Caco-2 cell bi-directional transport assay; format: in vitro ADME; settings: human; for Papp: Caco-2
# Excerpt: (§1) As in vivo investigations are generally time consuming and expensive, it is advantageous to eliminate those compounds that are not suitable for animal experiments. One of the necessary steps is to screen the initial hits using assays testing their possible behaviors in vivo. To evaluate the drug-like properties of TBPT, a panel of in vitro assays was preformed (Table 1). The parallel artificial membrane permeability assay (PAMPA) was used to evaluate the cell permeability of the compounds. Compounds with a Pe >[…] are classified as highly permeable. […] The Caco-2 assay was used to predict the oral absorption values of the compounds in vivo. Compounds with a Caco-2 efflux ratio >2 may be subject to active efflux and should not be developed further. […] The half-life (T1/2) in human liver microsomes is used to predict the metabolism properties of compounds in vivo. […] A very long T1/2 (>24 h) increases the risk of cumulative toxicity and is not desirable. […] T1/2 in plasma indicates the stability of the drug in human blood; the high T1/2 values of these compounds indicated better stability in vivo. Plasma protein binding influences the distribution of drugs into body tissues, and compounds with high plasma protein binding (>99%) are limited in terms of the amount of free compound that are available to act on the targeted tissue.
# (§2) The PAMPA and Caco-2 cell bi-directional transport assay of the derivatives were conducted as described in our previous report.[65], [66] The human liver microsome, plasma stability and plasma protein-binding assays were conducted following modified protocols reported by Cyprotex (Macclesfield, UK).[67], [68], [69], [70]
# Caco-2 = Caco-2 cell bi-directional transport assay; format: in vitro ADME; settings: Caco-2
# Excerpt: as §1, §2
# plasma protein binding = format: in vitro ADME
# Excerpt: as §1, with “tissue. […]” for “tissue.”
# H460TaxR = test: Apoptosis flow cytometry (PI/Annexin V-FITC); format: cell-based, human; settings: NSCLC cells (H460TaxR), 2 μM, 48 h
# caspases 8, 9 and 3/7 = test: Caspases activity assay in H460 cells; format: cell-based, human; settings: H460, 2 μM, 6, 12 and 24 h
# Procedure: The activities of caspases 8, 9, and 3/7 in H460TaxR and H460 cells were examined via a fluorescence-based assay using Caspase-Glo 8, Caspase-Glo 9 Assay kits and Apo-ONE Homogeneous Caspase-3/7 Assay Kit (Promega, Madison, WI, USA). Cells (1 × 10^6 cells in 10 ml medium) were seeded in 10-cm dishes. After 24 h, the cells were treated with TBPT (2 μM) or DMSO for 6, 12 and 24 h. Then, the cells were washed in PBS and collected. Cell lysates were prepared conventionally in RIPA lysis buffer. Protein concentrations were determined using the BCA protein assay. Equal amounts (10 μg) of total protein of samples were added to 96-well culture plates containing 100 μl caspases 8, 9 and 3/7 activity working solution. After the samples were incubated for 1 h at RT, the fluorescence of each well was determined at 499 nm with an emission wavelength of 521 nm using a multimode plate reader (Victor X2, Perkin Elmer, Boston, MA, USA). The fluorescence intensities are proportional to the activities of caspases 8, 9 and 3/7.
# EGFR(G719C) = target: T1, EGFR(G719C) (Homo sapiens, UniProt P00533, G719C); test: KINOMEscan; format: binding; settings: read-out: % Ctrl
# T1 construct: purchased DiscoveRx KINOMEscan
# [2] = target: T2, EGFR(L747-E749del, A750P) (Homo sapiens, UniProt P00533, A750P/DEL747-749); test: KINOMEscan; format: binding; settings: read-out: % Ctrl
# T2 construct: purchased DiscoveRx KINOMEscan
# EGFR(L747-T751del,Sins) = test: KINOMEscan; format: binding, human
# FLT3(ITD) = test: KINOMEscan; format: binding, human
# Procedure: The binding assay for 442 non-mutant kinases was performed using KINOMEscan (DiscoveRx Corporation, Fremont, CA, USA) as reported previously.[58], [59] TBPT was screened at concentrations of 5 and 10 μM to identify the affected kinases. KINOMEscan is based on a competition reaction that quantitatively measures the ability of a test compound to compete with an active site-directed ligand for binding to the kinase active site. […] After the assay plates were incubated with shaking for 1 h, the liganded beads were washed with washing buffer (1 × PBS and 0.05% Tween 20). Then, the beads were re-suspended in elution buffer (1 × PBS, 0.05% Tween 20, and 0.5 μM ligand) and incubated with shaking for 30 min. The kinase concentration in the eluates was measured via qPCR. The results are represented as ‘%Ctrl', which was calculated using the following formula: (test compound signal–positive control signal)/(DMSO signal–positive control signal) × 100%. A lower % Ctrl indicates stronger binding to the kinase active site.
# KIT(L576P) = target: T3, KIT(L576P) (Homo sapiens, UniProt P10721, L576P); test: KINOMEscan; format: binding; settings: read-out: % Ctrl
# T3 construct: purchased DiscoveRx KINOMEscan
# MET(M1250T) = target: T4, MET(M1250T) (Homo sapiens, UniProt P08581, M1250T); test: KINOMEscan; format: binding; settings: read-out: % Ctrl
# T4 construct: purchased DiscoveRx KINOMEscan
# PIK3CA(E545A) = target: T5, PIK3CA(E545A) (Homo sapiens, UniProt P42336, E545A); test: KINOMEscan; format: binding; settings: read-out: % Ctrl
# T5 construct: purchased DiscoveRx KINOMEscan
# PKNB(M.tuberculosis) = target: T6, PKNB(M.tuberculosis) (Mycobacterium tuberculosis, UniProt P9WI81); test: KINOMEscan; format: binding; settings: read-out: % Ctrl
# T6 construct: purchased DiscoveRx KINOMEscan
# RET(V804L) = target: T7, RET(V804L) (Homo sapiens, UniProt P07949, V804L); test: KINOMEscan; format: binding; settings: read-out: % Ctrl
# T7 construct: purchased DiscoveRx KINOMEscan
# [3] = mouse, in vivo
# Procedure: Five injections of vehicle and TBPT (30 or 60 mg/kg) were administered intravenously at days 1, 3, 5, 7 and 9 (arrows). Four injections of PTX (10 mg/kg) were administered intravenously at days 1, 3, 5 and 7. (a) The tumor volume was measured every other day. When the tumor volume in the solvent-treated group exceeded 1500 mm^3, the experiment was terminated. (b) Blood biochemical and hematological analyses. (c) The body weights of the mice were monitored every other day during the experiments. *P<0.05, Student's t-test with day 0, N=5
# Figure 3 Histopathological examination of the major organs from TBPT or PTX-treated mouse tumor at the end of the experiments. The cross-sections of organs were stained with hematoxylin–eosin. […] The scale bars represent 50 μm and are uniform in each column
# H460 and H460TaxR cells (5 × 10^6 cells in 100 μl PBS) were injected subcutaneously into the dorsal flank of each mouse. When the tumors reached volumes of 100 mm^3, the mice were divided randomly into four groups. The mice were treated every other day five times with intravenous injections of (1) vehicle (the solvent of TBPT: 60% PBS, 8% Cremophor EL, 8% EtOH, 12% poly propylene glycol and 12% PEG-400), (2) TBPT (30 mg/kg) or (3) TBPT (60 mg/kg). Another group was treated with PTX (10 mg/kg) every other day four times as the positive control. The tumor dimensions and body weights were measured every other day. The tumor volume was calculated according to a standard formula: volume=width^2 × length/2. The experiment was terminated and the mice were killed when the tumor volumes in the solvent-treated group exceeded 1500 mm^3. The mouse organs and blood were collected and used for hematoxylin–eosin staining and serum chemistry assay. TGI rates were assessed using the following formula: TGI=1− (Tt−T0)/(Ct−C0) × 100%. Tt and T0 indicate the tumor volumes of the treated group at days t and 0. Ct and C0 indicate the tumor volumes of the control group at days t and 0, respectively.
# T3 sequence (P10721 26-976 L576P): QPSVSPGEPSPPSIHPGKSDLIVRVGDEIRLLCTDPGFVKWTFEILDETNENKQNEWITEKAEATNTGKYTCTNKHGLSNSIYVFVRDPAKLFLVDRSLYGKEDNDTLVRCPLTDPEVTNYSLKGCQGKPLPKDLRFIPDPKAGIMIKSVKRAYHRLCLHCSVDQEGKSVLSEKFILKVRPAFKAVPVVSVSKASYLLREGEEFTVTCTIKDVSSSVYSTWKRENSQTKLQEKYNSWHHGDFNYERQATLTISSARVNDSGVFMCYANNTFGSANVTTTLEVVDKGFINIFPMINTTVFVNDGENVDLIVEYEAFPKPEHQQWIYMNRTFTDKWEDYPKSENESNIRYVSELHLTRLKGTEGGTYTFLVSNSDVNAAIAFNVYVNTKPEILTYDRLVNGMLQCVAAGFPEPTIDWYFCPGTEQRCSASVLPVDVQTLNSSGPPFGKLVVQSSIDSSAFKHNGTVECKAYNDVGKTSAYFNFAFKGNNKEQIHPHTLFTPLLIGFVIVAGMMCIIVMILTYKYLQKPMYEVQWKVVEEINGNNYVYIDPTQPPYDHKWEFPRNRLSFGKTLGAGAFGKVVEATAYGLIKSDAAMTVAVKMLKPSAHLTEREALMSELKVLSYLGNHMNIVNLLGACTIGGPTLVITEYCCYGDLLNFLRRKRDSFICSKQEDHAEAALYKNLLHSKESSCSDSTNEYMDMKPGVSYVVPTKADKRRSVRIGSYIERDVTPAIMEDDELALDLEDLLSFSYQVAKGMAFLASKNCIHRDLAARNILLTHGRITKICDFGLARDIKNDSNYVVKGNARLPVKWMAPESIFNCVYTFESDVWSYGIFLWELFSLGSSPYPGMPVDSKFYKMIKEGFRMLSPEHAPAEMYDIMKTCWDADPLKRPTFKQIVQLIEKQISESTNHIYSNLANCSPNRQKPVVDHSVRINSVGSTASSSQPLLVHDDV
# T6 sequence (P9WI81 whole entry): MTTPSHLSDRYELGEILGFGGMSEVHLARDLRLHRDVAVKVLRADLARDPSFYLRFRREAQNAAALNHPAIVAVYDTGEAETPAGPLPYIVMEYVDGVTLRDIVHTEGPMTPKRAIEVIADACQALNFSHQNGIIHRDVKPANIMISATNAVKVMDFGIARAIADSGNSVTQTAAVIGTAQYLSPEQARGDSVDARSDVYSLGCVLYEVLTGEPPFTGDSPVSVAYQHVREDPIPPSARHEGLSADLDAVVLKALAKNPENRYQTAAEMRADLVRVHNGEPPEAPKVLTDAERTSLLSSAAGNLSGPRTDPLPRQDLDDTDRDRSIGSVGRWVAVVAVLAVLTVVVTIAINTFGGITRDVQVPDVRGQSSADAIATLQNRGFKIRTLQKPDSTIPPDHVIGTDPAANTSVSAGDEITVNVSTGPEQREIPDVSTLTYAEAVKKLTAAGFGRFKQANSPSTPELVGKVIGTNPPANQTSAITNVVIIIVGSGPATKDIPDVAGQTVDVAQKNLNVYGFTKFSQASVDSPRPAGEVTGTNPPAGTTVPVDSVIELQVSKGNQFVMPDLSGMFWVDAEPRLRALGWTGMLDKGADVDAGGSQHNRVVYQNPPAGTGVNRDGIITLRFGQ
# T7 sequence (P07949 29-1114 V804L): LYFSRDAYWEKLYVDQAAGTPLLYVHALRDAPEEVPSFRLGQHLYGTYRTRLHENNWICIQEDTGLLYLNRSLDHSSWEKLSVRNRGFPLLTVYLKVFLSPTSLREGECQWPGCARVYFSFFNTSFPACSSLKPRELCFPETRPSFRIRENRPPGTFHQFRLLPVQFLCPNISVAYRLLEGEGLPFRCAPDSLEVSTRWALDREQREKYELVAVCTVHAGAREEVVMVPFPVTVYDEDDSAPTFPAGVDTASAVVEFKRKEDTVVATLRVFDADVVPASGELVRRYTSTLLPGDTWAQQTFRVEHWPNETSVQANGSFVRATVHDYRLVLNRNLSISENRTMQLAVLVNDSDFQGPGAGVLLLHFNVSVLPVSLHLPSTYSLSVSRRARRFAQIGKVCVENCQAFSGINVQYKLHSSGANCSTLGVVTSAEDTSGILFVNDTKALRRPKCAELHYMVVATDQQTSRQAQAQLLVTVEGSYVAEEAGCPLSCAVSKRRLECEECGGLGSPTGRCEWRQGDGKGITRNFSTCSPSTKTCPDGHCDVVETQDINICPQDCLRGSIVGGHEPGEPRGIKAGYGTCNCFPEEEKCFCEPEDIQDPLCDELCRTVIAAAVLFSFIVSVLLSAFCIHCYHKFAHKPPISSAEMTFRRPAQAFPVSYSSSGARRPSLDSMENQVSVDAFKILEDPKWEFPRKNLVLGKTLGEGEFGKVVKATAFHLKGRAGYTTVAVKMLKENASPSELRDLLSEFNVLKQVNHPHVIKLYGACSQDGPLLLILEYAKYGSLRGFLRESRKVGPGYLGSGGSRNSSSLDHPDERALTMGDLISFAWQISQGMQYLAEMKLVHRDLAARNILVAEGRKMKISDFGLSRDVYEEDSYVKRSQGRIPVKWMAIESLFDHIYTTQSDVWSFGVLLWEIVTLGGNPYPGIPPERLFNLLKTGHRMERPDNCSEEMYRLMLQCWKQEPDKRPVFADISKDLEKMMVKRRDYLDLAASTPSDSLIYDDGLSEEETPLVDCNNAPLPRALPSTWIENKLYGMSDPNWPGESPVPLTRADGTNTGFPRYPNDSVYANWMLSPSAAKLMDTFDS
# T4 sequence (P08581 25-1390 M1250T): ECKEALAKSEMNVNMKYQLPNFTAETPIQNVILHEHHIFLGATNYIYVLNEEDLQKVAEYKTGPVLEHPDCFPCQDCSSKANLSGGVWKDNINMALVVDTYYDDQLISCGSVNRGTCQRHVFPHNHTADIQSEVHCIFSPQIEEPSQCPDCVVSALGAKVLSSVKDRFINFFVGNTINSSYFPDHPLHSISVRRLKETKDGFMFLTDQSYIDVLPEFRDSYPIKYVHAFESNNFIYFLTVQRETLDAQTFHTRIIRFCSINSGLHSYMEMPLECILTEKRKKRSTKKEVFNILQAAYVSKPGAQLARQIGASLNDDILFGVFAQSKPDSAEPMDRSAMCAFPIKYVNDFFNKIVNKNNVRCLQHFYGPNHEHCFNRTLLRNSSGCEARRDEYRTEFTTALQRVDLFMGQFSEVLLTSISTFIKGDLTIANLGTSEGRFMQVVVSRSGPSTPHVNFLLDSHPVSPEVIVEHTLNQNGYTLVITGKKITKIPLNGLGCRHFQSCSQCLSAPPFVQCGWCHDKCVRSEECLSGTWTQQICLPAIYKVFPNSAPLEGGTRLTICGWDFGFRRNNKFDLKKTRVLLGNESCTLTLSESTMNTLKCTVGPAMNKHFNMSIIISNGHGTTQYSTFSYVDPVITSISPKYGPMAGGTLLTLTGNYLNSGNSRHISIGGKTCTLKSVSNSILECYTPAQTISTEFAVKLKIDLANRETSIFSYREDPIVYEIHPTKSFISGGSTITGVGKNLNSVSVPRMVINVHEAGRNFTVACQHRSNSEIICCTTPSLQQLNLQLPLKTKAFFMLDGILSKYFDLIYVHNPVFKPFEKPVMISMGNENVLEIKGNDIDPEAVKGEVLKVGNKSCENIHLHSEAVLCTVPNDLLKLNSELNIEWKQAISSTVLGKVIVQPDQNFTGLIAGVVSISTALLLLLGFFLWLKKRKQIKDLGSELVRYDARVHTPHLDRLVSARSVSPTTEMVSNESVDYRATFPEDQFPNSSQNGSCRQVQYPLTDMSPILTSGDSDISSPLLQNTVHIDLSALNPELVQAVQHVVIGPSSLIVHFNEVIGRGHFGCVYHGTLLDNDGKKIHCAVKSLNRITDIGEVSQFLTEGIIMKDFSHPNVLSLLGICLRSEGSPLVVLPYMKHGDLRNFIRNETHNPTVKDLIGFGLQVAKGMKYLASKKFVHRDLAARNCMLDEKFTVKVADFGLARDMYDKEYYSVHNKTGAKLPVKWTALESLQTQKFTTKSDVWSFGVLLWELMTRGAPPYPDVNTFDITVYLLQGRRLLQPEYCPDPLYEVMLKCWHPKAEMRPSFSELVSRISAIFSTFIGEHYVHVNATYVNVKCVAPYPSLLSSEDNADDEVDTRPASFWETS
# T2 sequence (P00533 with tags, fused parts or gaps DEL747-749/A750P limits assumed): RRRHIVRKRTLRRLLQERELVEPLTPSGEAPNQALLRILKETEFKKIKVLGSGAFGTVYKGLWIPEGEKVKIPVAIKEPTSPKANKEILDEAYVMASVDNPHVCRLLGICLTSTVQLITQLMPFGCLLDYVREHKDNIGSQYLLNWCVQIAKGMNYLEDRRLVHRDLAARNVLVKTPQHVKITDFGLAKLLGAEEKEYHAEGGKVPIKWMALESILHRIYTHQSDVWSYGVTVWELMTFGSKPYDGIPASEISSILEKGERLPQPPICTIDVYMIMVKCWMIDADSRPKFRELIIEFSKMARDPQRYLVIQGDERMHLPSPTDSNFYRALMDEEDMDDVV
structure (smiles),measurement,setting,value
"Cc1ccc(C2=Nc3cccnc3S(=O)(=O)c3ccccc32)cc1 [TBPT, 6-(p-tolyl)benzo[f] pyrido[2,3-b][1,4] thiazepine 11,11-dioxide]",efflux ratio,"[1]; Caco-2, Caco-2, read-out: Efflux ratio (B2A/A2B)",0.4 to 0.8
same,Papp,[1]; read-out: Caco-2 Papp A/B,34.5 ± 2.06 ×10⁻⁶ cm/s
same,Papp,[1]; read-out: Caco-2 Papp B/A,20.6 ± 7 ×10⁻⁶ cm/s
same,Efflux ratio (B2A/A2B),Caco-2,0.59±0.17
same,fraction unbound,plasma protein binding,0.0164
same,cells in an apoptotic/necrotic state,H460TaxR,approximately 50%
same,"activities of caspases 8, 9 and 3/7","caspases 8, 9 and 3/7","activated caspases 8, 9 and 3/7 in a time-dependent manner"
same,remaining binding at 5 µM,EGFR(G719C); 5 μM,73%
same,remaining binding at 10 µM,EGFR(G719C); 10 μM,100%
same,remaining binding at 5 µM,[2]; 5 μM,91%
same,remaining binding at 10 µM,[2]; 10 μM,91%
same,% Ctrl,"EGFR(L747-T751del,Sins); 5 μM",88%
same,% Ctrl,"EGFR(L747-T751del,Sins); 10 μM",98%
same,% Ctrl,FLT3(ITD); 5 μM,95%
same,% Ctrl,FLT3(ITD); 10 μM,100%
same,remaining binding at 5 µM,KIT(L576P); 5 μM,78%
same,remaining binding at 10 µM,KIT(L576P); 10 μM,100%
same,remaining binding at 5 µM,MET(M1250T); 5 μM,100%
same,remaining binding at 10 µM,MET(M1250T); 10 μM,77%
same,remaining binding at 5 µM,PIK3CA(E545A); 5 μM,100%
same,remaining binding at 10 µM,PIK3CA(E545A); 10 μM,100%
same,remaining binding at 5 µM,PKNB(M.tuberculosis); 5 μM,100%
same,remaining binding at 10 µM,PKNB(M.tuberculosis); 10 μM,85%
same,remaining binding at 5 µM,RET(V804L); 5 μM,100%
same,remaining binding at 10 µM,RET(V804L); 10 μM,86%
same,histopathological examination of the major organs,[3],No pathological changes were observed
